Source: patent publication US20100009920A1, “TTK AS TUMOR MARKER AND THERAPEUTIC TARGET FOR LUNG CANCER” (priority 2006, published 2010)
Entries after “also recorded” stand apart in the source; their conditions may differ.

Experiments:
TTK [1] = test: Semiquantitative RT-PCR of TTK expression after transfection of siRNA-expression plasmids; type: cell-based, human; conditions: LC319 and A549 cells, versus control siRNAs (LUC, SCR)
Experimental: Total RNA was extracted from cultured cells and clinical tissues using Trizol reagent (Life Technologies, Inc.) according to the manufacturer's protocol. Extracted RNAs and normal human tissue poly(A) RNAs were treated with DNase I (Nippon Gene) and were reverse-transcribed using oligo(dT)20 primer and SuperScript II reverse transcriptase (Invitrogen). Semiquantitative RT-PCR experiments were carried out with the following synthesized gene-specific primers or with beta-actin (ACTB)-specific primers as an internal control: TTK,
A vector-based RNA interference (RNAi) system, psiH1BX3.0, had previously established to direct the synthesis of siRNAs in mammalian cells (Suzuki et al., 2003, 2005; Kato et al, 2005; Furukawa et al, 2005). 10 micro-g of siRNA-expression vector were transfected into NSCLC cell lines LC319 and A549 both of which over-expressed TTK endogenously, using 30 micro-1 of Lipofectamine 2000 (Invitrogen). The transfected cells were cultured for five days in the presence of appropriate concentrations of geneticin (G418), after which cell numbers and viability were measured by Giemsa staining and triplicate MTT assays. […]

LC319 and A549 cells = test: MTT and colony-formation assays after transfection of siRNA-expression plasmids; type: cell-based, human
Experimental: A vector-based RNA interference (RNAi) system, psiH1BX3.0, had previously established to direct the synthesis of siRNAs in mammalian cells (Suzuki et al., 2003, 2005; Kato et al, 2005; Furukawa et al, 2005). 10 micro-g of siRNA-expression vector were transfected into NSCLC cell lines LC319 and A549 both of which over-expressed TTK endogenously, using 30 micro-1 of Lipofectamine 2000 (Invitrogen). The transfected cells were cultured for five days in the presence of appropriate concentrations of geneticin (G418), after which cell numbers and viability were measured by Giemsa staining and triplicate MTT assays. The target sequences of the synthetic oligonucleotides for RNAi were as follows: control 1 (Luciferase: Photinus pyralis luciferase gene), 5′-CGTACGCGGAATACTTCGA-3′ (SEQ ID NO: 9); control 2 (Scramble: chloroplast Euglena gracilis gene coding for 5S and 16S rRNAs),

A549 cells [2] = test: Microscopic observation of cell morphology (phase contrast images); type: cell-based, human; conditions: non-treated cells as control
Experimental: (§1) The oligo-siRNAs (Dharmacon, Inc., Lafayette, Colo.) ([…]) were transfected into appropriate lung-cancer cell lines using 30 micro-1 of Lipofectamine 2000 (Invitrogen, Carlsbad, Calif.) following the manufacturer's protocol. The ribonucleotide sequences corresponding to following sequences were used as the oligo-siRNA.
The endogenous association between TTK and EGFR in lung cancer cells was also investigated by immunoprecipitaion experiment using extracts from A549 cells, and the interaction between these two proteins regardless the EGF-stimulation was detected (FIG. 4b). To further examine the relevance of TTK to EGFR signaling, TTK or EGFR function in A549 cells were suppressed and cell morphology was microscopically observed.

[3] = system: catalytically-active recombinant GST-tagged human EGFR (active-rhEGFR); test: In vitro kinase assay, autophosphorylation of active-rhEGFR (western blot with anti-phospho-tyrosine antibodies); type: biochemical; conditions: in the presence of ATP, no recombinant TTK
TTK [4] = test: In vitro kinase assay, phosphorylation of active-rhEGFR by recombinant TTK; type: biochemical, human; conditions: active-rhEGFR pre-treated with inhibitor, recombinant TTK present
Excerpt: The full-length cDNA of TTK was subcloned into pFastBac HT vector. The recombinant shuttle vector was transformed into the baculovirus genome (bacmid DNA) in DH10Bac competent cells (Invitrogen) by using Tn7 site-specific transposition according to the minufacture's instructions for the Bac-to-Bac expression system (Invitrogen). The recombinant bacmid DNA was isolated, purified, transfected into Sf9 cells (Invitrogen) (recombinant baculovirus), and used for next infection. Log-phase Sf-9 cells were infected with recombinant baculovirus at a multiplicity of infection (MOI) of 1, and then infected Sf-9 cells were grown in suspension at 27° C. for 72 hours. Extracts of Sf-9 cells were collected and the His fusion proteins were purified using HiTrap HP column (GE Healthcare Bio-sciences) using standard protocols. […] TTK-KD was cloned into pGEX6T vector (GE Healthcare Bio-sciences). GST fusion protein was expressed in E. coli stain BL21 and purified by Glutathione Sepharose 4B (GE Healthcare Bio-sciences) using standard protocols. […]
The EGFR tyrosine phosphorylation sites were further evaluated by TTK using GST-tagged proteins containing various cytoplasmic region of EGFR as substrates (EGFR-DEL1, −DEL2, and −DEL3; FIG. 4e). […]

HEK293 cells [5] = test: MTT assay of TTK- or mock-stable transfectants of HEK293 transfected with RNAi-EGFR; type: cell-based
Experimental: as §1
TTK-expressing stable transfectants were established according to a standard protocol. Using FuGENE 6 Transfection Reagent (Roche Diagnostics), we transfected HEK293 and NIH3T3 cells with plasmids expressing TTK (pCAGGS-n3FH-TTK) or mock plasmids (pCAGGS-n3FH). Transfected cells were cultured in DMEM containing 10% FCS and G418, then individual colonies were trypsinized and screened for stable transfectants by a limiting-dilution assay. Expression of TTK was determined in each clone by RT-PCR, western blotting, and immunostaining. HEK293 or NIH3T3 transfectants that stably expressed TTK were seeded onto 6-well plates (5×10^4 cells/well), and maintained in medium containing 10% FCS and 0.4 mg/ml G418 for 7 days. At each time point, cell proliferation was evaluated by the MTT assay using Cell Counting Kits (WAKO). All experiments were done in triplicate.

HEK293 cells [6] = test: Matrigel invasion assay of TTK- or mock-stable transfectants of HEK293 transfected with RNAi-EGFR; type: cell-based
A549 cells [7] = test: MTT assay of A549 cells treated with cell-permeable 11R-EGFR peptides; type: cell-based, human; conditions: A549 cells, 2.5, 5 and 7.5 micro-mol/L, 5 days
Experimental: 17˜31 amino acid peptide sequences corresponding to a part of EGFR protein that contained possible TTK-interacting region were covalently linked at its NH2 terminus to a membrane transducing 11 poly-arginine sequence (Hayama, S, et al. Cancer Res. 66, 10339-48 (2006), Futaki S, et al. J Biol. Chem. 276, 5836-5840 (2001)). Three cell-permeable peptides were synthesized:
Peptides were purified by preparative reverse-phase high-pressure liquid chromatography. A549 cells were incubated with the 11R peptides at the concentration of 2.5, 5, and 7.5 micro-mol/L for 5 days. The medium was exchanged at every 48 hours at the appropriate concentrations of each peptide and the viability of cells was evaluated by MTT assay at 5 days after the treatment.

## 5′-ACAGTGTTCCGCTAAGTGA-3′ [si-TTK-1]
TTK [1]
  amount of TTK transcript: significantly decreased
LC319 and A549 cells; versus two control siRNAs
  cell viability (MTT assay): reduced significantly
  colony numbers (colony-formation assay): reduced significantly

## 5′-ATCACGGACCAGTACATCT-3′ [si-TTK-2]
TTK [1]
  amount of TTK transcript: weaker reduction
LC319 and A549 cells
  growth-suppressive effect: modest growth-suppressive effect

## COc1cc2ncnc(Nc3cccc(Cl)c3)c2cc1OC [AG1478, tryphostin 4-(3-chloroanilino)-6,7-dimethoxyquinazoline]
A549 cells [2]
  cell morphology: became much larger with multiple nuclei
[3]
  autophosphorylation of active-rhEGFR on tyrosine: inhibited
[3]; listed as AG1378
  autophosphorylation of active-rhEGFR on tyrosine: not detected
TTK [4]
  phosphorylation of active-rhEGFR by TTK: not inhibited
TTK [4]; listed as AG1378
  phosphorylation of active-rhEGFR by TTK: detected in the presence of recombinant TTK

## GTAACAAGCTCACGCAGTTTT (listed as DNA, chemistry not given here) [RNAi-EGFR (oligo)]
A549 cells [2]
  cell morphology: became much larger with multiple nuclei
HEK293 cells [5]; HEK293 transfectants stably expressing TTK, P=0.0032
  TTK-induced cell proliferation: significantly reduced
HEK293 cells [5]; control cells transfected with mock vector, P=0.2439
  proliferation of HEK293 control cells: scarcely reduced
HEK293 cells [6]; TTK-transfected HEK293 cells, P<0.0001
  TTK-induced cell invasion through Matrigel: reduced to near the basal level
HEK293 cells [6]; mock-transfected HEK293 cells
  Invasion of the control cells through Matrigel: slightly reduced

## RRRRRRRRRRR-GGG-DVYMIMVKCWMIDADSRPK (An artificially synthesised dominant negative peptide) [11R-EGFR918-936]
A549 cells [7]
  cell viability (MTT assay): significant decreases

## RRRRRRRRRRR-GGG-EFMAELLRYFRPQSKRDII (RRRRRRRRRRRGGGEFMAELLRYFRPQSKRDII) [scramble peptides, Scramble peptides derived from 11R-EGFR937-955, synthesized as a control, reference compound]
A549 cells [7]
  cell viability (MTT assay): no growth-suppressive effect

## RRRRRRRRRRR-GGG-FRELIIEFSKMARDPQRYL (An artificially synthesised dominant negative peptide) [11R-EGFR937-955]
A549 cells [7]
  cell viability (MTT assay): most effective; also recorded: significant decreases

## RRRRRRRRRRR-GGG-ISSILEKGERLPQPPICTI (An artificially synthesised dominant negative peptide) [11R-EGFR899-917]
A549 cells [7]
  cell viability (MTT assay): significant decreases
